For experiment [1], the target named is T1, human OX2 receptors (Homo sapiens, UniProt O43614).
T1 construct: expressed in transfected cells; host or cells: HEK-293 cells
T1 sequence (O43614 1-444): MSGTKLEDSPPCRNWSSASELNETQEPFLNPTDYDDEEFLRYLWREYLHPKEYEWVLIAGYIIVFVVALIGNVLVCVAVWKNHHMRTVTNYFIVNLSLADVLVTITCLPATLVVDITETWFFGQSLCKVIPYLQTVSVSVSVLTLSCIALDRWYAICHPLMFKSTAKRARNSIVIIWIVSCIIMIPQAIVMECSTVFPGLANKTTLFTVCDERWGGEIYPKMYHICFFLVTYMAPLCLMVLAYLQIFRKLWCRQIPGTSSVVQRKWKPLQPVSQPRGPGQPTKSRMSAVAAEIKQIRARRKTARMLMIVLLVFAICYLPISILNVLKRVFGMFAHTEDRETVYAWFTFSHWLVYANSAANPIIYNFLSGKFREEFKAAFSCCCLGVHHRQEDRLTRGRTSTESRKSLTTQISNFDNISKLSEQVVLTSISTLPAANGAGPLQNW
Description: Antagonistic activity against human OX2 receptor, [Ca2+]i fluorimetry (Fluo-4NW) in transfected HEK-293 cells activated with orexin-B. Type of experiment: cell-based. The method, then:
(§1) In a typical experiment, the antagonistic activity against human OX1 and OX2 receptors is determined by using CHO e HEK-293 cells transfected with human recombinant OX1 and OX2 receptors respectively, seeded at density of 2 and 3×10^4 cells/well respectively in a 96 fluorimetry well plate. Thus the plate was loaded with the calcium dye (Fluo-4NW/probenecid in HBSS, Hepes 20 mM, pH 7.4; Invitrogen) at 37° C. for 60 min. Afterward the temperature was equilibrated at 22° C. for 15 min and the [Ca2+]i measured directly on the plate by using a fluorescent plate reader (CellLux Perkin Elmer).
(§2) Invention compounds were dissolved in DMSO, diluted in HBSS (DMSO, 0.3% final) and added to the wells. After 5 min CHO cells were activated with orexin-A, 3 nM while HEK-293 cells were activated with orexin-B, 10 nM.
(§3) The compounds, dissolved in DMSO and diluted in the medium (DMSO, 0.3% final), have been analysed in the 1 nM-1 μM concentration range (every concentration in duplicate). The antagonistic activity has been expressed as pKb (co-logarithm of the apparent dissociation constant calculated by using the modified Cheng Prusoff equation).
(§4) The results are expressed as percent of control specific […] response ((measured specific response/control specific agonist response)×100) obtained in the presence of the test compounds.
(§5) The IC50 values (concentration causing a half-maximal inhibition of the control specific agonist response) were determinated by non-linear regression analysis of the concentration curves generated with mean replicate values using hill equation curve fitting. The IC50 values are obtained by the arithmetical mean of at least two experiments. Compounds of the following example tested according to this example gave pKbs as follows: […]

The target of experiment [2] is T2, human OX1 receptors (Homo sapiens, UniProt O43613).
T2 construct: expressed in transfected cells; host or cells: CHO cells
T2 sequence (O43613 1-425): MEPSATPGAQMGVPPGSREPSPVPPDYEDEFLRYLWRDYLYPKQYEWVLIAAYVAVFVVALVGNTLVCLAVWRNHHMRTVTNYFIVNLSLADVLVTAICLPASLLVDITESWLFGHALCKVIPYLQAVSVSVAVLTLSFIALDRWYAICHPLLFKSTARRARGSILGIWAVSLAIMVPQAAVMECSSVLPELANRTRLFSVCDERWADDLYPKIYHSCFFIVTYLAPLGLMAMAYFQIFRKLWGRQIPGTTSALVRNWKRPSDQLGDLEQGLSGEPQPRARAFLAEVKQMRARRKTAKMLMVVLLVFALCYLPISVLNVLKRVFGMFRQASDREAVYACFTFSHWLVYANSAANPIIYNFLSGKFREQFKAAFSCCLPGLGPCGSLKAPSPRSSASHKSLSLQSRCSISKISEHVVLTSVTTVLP
In words: Antagonistic activity against human OX1 receptor, [Ca2+]i fluorimetry (Fluo-4NW) in transfected CHO cells activated with orexin-A. Type of experiment: cell-based. The following applies: for Kb: CHO cells transfected with human recombinant OX1, orexin-A 3 nM, pKb = co-logarithm of apparent dissociation constant, modified Cheng Prusoff. As to the method:
as §1, §2, §3, §4, §5

[3] abbreviates: HEK-293 cells transfected with human recombinant OX2, orexin-B 10 nM, pKb = co-logarithm of apparent dissociation constant, modified Cheng Prusoff.
The mark [4] stands for this setting: comparison table with compound of WO2011006960.

Structures are written as SMILES. Like-named read-outs stand apart in the source and are kept apart here.

Regarding `O=C(c1cc(Cl)ccc1-c1ncccn1)N1CC2(CC2)C[C@H]1CNc1cc(C(F)(F)F)c(Cl)cn1` [Compound 1t, (S)-(5-chloro-2-(pyrimidin-2-yl)phenyl)(6-(((5-chloro-4-(trifluoromethyl)pyridin-2-yl)amino)methyl)-5-azaspiro[2.4]heptan-5-yl)methanone], the Kb in experiment [1] (setting [3]) is 20 nM; in experiment [2] it was 7.94 nM.
In the same order, the values of `Cc1ccc(-c2ncccn2)c(C(=O)N2CC3(CC3)C[C@H]2CNc2ccc(C(F)(F)F)cn2)n1` [Compound 3a, (S)-(6-methyl-3-(pyrimidin-2-yl)pyridin-2-yl)(6-(((5-(trifluoromethyl)pyridin-2-yl)amino)methyl)-5-azaspiro[2.4]heptan-5-yl)methanone] are 31.6 nM and 3.98 nM.
For `Cc1ccc(-c2ncccn2)c(C(=O)N2CC3(CC3)C[C@H]2CNc2ncc(C(F)(F)F)cc2Cl)n1` [Compound 3g, (S)-(6-(((3-chloro-5-(trifluoromethyl)pyridin-2-yl)amino)methyl)-5-azaspiro[2.4]heptan-5-yl)(6-methyl-3-(pyrimidin-2-yl)pyridin-2-yl)methanone], the Kb in experiment [1] (setting [3]) was 10 nM; in experiment [2], 5.01 nM.
On the same counts, the results for `Cc1cccc(NC[C@@H]2CC3(CC3)CN2C(=O)c2nc(C)sc2-c2ccccc2)n1` [Compound 2c, (S)-(2-methyl-5-phenylthiazol-4-yl)(6-(((6-methylpyridin-2-yl)amino)methyl)-5-azaspiro[2.4]heptan-5-yl)methanone] are 25.1 nM and 50.1 nM.
For `O=C(c1cc(Br)ccc1-c1ncccn1)N1CC2(CC2)C[C@H]1CNc1ccc(C(F)(F)F)cn1` [Compound 1e, (S)-(5-bromo-2-(pyrimidin-2-yl)phenyl)(6-(((5-(trifluoromethyl)pyridin-2-yl)amino)methyl)-5-azaspiro[2.4]heptan-5-yl)methanone], the Kb is 20 nM in experiment [1] (setting [3]) and 3.16 nM in experiment [2].
For `Cc1nc(C(=O)N2CC3(CC3)C[C@H]2CNc2nccc3ccccc23)c(-c2ccccc2)s1` [Compound 2e, (S)-(6-((isoquinolin-1-ylamino)methyl)-5-azaspiro[2.4]heptan-5-yl)(2-methyl-5-phenylthiazol-4-yl)methanone], the Kb in experiment [1] (setting [3]) and in experiment [2] was 2.51 nM throughout.
Take `O=C(c1c(F)cccc1-c1ncccn1)N1CC2(CC2)C[C@H]1CNc1ncc(C(F)(F)F)cc1F` [Compound 1g, (S)-(6-(((3-fluoro-5-(trifluoromethyl)pyridin-2-yl)amino)methyl)-5-azaspiro[2.4]heptan-5-yl)(2-fluoro-6-(pyrimidin-2-yl)phenyl)methanone]: the Kb was 39.8 nM in experiment [1] (setting [3]) and 1.26 nM in experiment [2].
As for `Cc1ccc(-c2ncccn2)c(C(=O)N2CC3(CC3)C[C@H]2CNc2ccc(C(F)(F)F)cn2)c1` [Compound 1o, (S)-(5-methyl-2-(pyrimidin-2-yl)phenyl)(6-(((5-(trifluoromethyl)pyridin-2-yl)amino)methyl)-5-azaspiro[2.4]heptan-5-yl)methanone], the Kb in experiment [1] (setting [3]) was 251 nM; in experiment [2], 2 nM. The “pKb OX2” value in experiment [1] (setting [4]) amounted to 6.6. Also, in experiment [2] (setting [4]), the “pKb OX1” value is given as 8.7.
Consider `Cc1ccc(-c2ncccn2)c(C(=O)N2CC3(CC3)C[C@H]2CNc2nccc(C(F)(F)F)n2)c1` [Compound 1p, (S)-(5-methyl-2-(pyrimidin-2-yl)phenyl)(6-(((4-(trifluoromethyl)pyrimidin-2-yl)amino)methyl)-5-azaspiro[2.4]heptan-5-yl)methanone], for which the Kb is 20 nM in experiment [1] (setting [3]) and 79.4 nM in experiment [2].
For `Cc1ccc(OCc2cc(F)cc(F)c2)c(C(=O)N2CC3(CC3)C[C@H]2CNc2ccc(C(F)(F)F)cn2)n1` [Compound 3o, (S)-(3-((3,5-difluorobenzyl)oxy)-6-methylpyridin-2-yl)(6-(((5-(trifluoromethyl)pyridin-2-yl)amino)methyl)-5-azaspiro[2.4]heptan-5-yl)methanone], the Kb was 5.01 nM in experiment [1] (setting [3]) and 6.31 nM in experiment [2].
On the same counts, the results for `Cc1ccc(-c2nccs2)c(C(=O)N2CC3(CC3)C[C@H]2CNc2ccc(C(F)(F)F)cn2)n1` [Compound 3q, (S)-(6-methyl-3-(thiazol-2-yl)pyridin-2-yl)(6-(((5-(trifluoromethyl)pyridin-2-yl)amino)methyl)-5-azaspiro[2.4]heptan-5-yl)methanone] are 10 nM and 2.51 nM.
For the compound `Cc1ccc(-c2ncccn2)c(C(=O)N2CC3(CC3)C[C@H]2CNc2ccc(Cl)cn2)c1` [Example 51 of WO2011006960, reference compound], in experiment [1] (comparison table with compound of WO2011006960, read-out: pKb OX2 (converted)), the Kb is above 10000 nM.
As to `Cc1ccc(-c2ncccn2)c(C(=O)N2CC3(CC3)C[C@H]2CNc2cc(C(F)(F)F)c(Cl)cn2)c1` [Compound 1r, (S)-(6-(((5-chloro-4-(trifluoromethyl)pyridin-2-yl)amino)methyl)-5-azaspiro[2.4]heptan-5-yl)(5-methyl-2-(pyrimidin-2-yl)phenyl)methanone], the Kb in experiment [1] (setting [3]) is 10 nM; in experiment [2], 6.31 nM.
In the case of `O=C(c1cccc2c1OC(F)(F)O2)N1CC2(CC2)C[C@H]1CNc1ccc(C(F)(F)F)cn1` [Compound 1b, (S)-(2,2-difluorobenzo[d][1,3]dioxol-4-yl)(6-(((5-(trifluoromethyl)pyridin-2-yl)amino)methyl)-5-azaspiro[2.4]heptan-5-yl)methanone], the Kb in experiment [1] (setting [3]) is 63.1 nM; in experiment [2] it was 79.4 nM.
With `Cc1nc(C(=O)N2CC3(CC3)C[C@H]2CNc2nc3ccccc3o2)c(-c2ccccc2)s1` [Compound 2b, (S)-(6-((benzo[d]oxazol-2-ylamino)methyl)-5-azaspiro[2.4]heptan-5-yl)(2-methyl-5-phenylthiazol-4-yl)methanone], the Kb in experiment [1] (setting [3]) was 2.51 nM; in experiment [2] it was 0.794 nM.
As to `Cc1cc(C(F)(F)F)cc(NC[C@@H]2CC3(CC3)CN2C(=O)c2nc(C)sc2-c2ccccc2)n1` [Compound 2k, (S)-(6-(((6-methyl-4-(trifluoromethyl)pyridin-2-yl)amino)methyl)-5-azaspiro[2.4]heptan-5-yl)(2-methyl-5-phenylthiazol-4-yl)methanone], the Kb is 2.51 nM in experiment [1] (setting [3]) and 15.8 nM in experiment [2].
In the case of `O=C(c1c(F)cccc1-c1ncccn1)N1CC2(CC2)C[C@H]1CNc1cc(C(F)(F)F)ccn1` [Compound 1h, (S)-(2-fluoro-6-(pyrimidin-2-yl)phenyl)(6-(((4-(trifluoromethyl)pyridin-2-yl)amino)methyl)-5-azaspiro[2.4]heptan-5-yl)methanone], the Kb is 12.6 nM in experiment [1] (setting [3]) and 39.8 nM in experiment [2].
For `O=C(c1ncccc1-c1ccccc1)N1CC2(CC2)C[C@H]1CNc1ccc(C(F)(F)F)cn1` [Compound E5, (S)-(3-phenylpyridin-2-yl)(6-(((5-(trifluoromethyl)-pyridin-2-yl)amino)methyl)-5-azaspiro[2.4]heptan-5-yl)methanone], the results for the Kb in experiment [1] (setting [3]) and in experiment [2] were 50.1 nM and 10 nM, respectively.
As to `Cc1ccc(-c2ccc(C#N)cc2)c(C(=O)N2CC3(CC3)C[C@H]2CNc2ccc(C(F)(F)F)cn2)n1` [Compound E8, (S)-4-(6-methyl-2-(6-(((5-(trifluoromethyl)pyridin-2-yl)amino)methyl)-5-azaspiro[2.4]heptane-5-carbonyl)pyridin-3-yl)benzonitrile], the Kb in experiment [1] (setting [3]) is 31.6 nM; in experiment [2], 20 nM.

The values above are taken from patent publication US9062033B2, “Chemical compounds” (Rottapharm Biotech S.r.l., priority 2011, dated 2015).
